In US11718604B2, “4-amino-6-(1,3-benzodioxole)picolinates and their use as herbicides” (Dow AgroSciences LLC, priority 2018, dated 2023):

Assays:
Assay type in all cases: in vivo
[1] = tested on: SETFA: giant foxtail (Setaria faberi); assay: Post-emergent herbicidal test, giant foxtail; conditions: post-emergence, 336 h, 14 days after application, read-out: Visual Growth Reduction (%) 14 Days After Application SETFA
Description: (§1) Post-Emergent Test: Seeds or nutlets of the desired test plant species were planted in Sun Gro Metro-Mix® 360 planting mixture, which typically has a pH of 6.0 to 6.8 and an organic matter content of about 30 percent, in plastic pots with a surface area of 64 square centimeters (cm^2). When required to ensure good germination and healthy plants, a fungicide treatment and/or other chemical or physical treatment was applied. The plants were grown for 7-21 d in a greenhouse with an approximate 15 h photoperiod which was maintained at about 23-29° C. during the day and 22-28° C. during the night. Nutrients and water were added on a regular basis and supplemental lighting was provided with overhead metal halide 1000-Watt lamps as necessary. The plants were employed for testing when they reached the first or second true leaf stage.
(§2) A weighed amount, determined by the highest rate to be tested, of each test compound was placed in a 25 mL glass vial and was dissolved in 4 mL of a 97:3 v/v mixture of acetone and DMSO to obtain concentrated stock solutions. […] The concentrated stock solutions obtained were diluted with 20 mL of an aqueous mixture containing acetone, water, isopropyl alcohol, DMSO, Atplus 411F crop oil concentrate, and Triton® X-155 surfactant in a 48.5:39:10:1.5:1.0:0.02 v/v ratio to obtain spray solutions containing the highest application rates. Additional application rates were obtained by serial dilution of 12 mL of the high rate solution into a solution containing 2 mL of a 97:3 v/v mixture of acetone and DMSO and 10 mL of an aqueous mixture containing acetone, water, isopropyl alcohol, DMSO, Atplus 411F crop oil concentrate, and Triton X-155 surfactant in a 48.5:39:10:1.5:1.0:0.02 v/v ratio to obtain ½×, ¼×, ⅛× and 1/16× rates of the high rate. Compound requirements are based upon a 12 mL application volume at a rate of 187 liters per hectare (L/ha). Formulated compounds were applied to the plant material with an overhead Mandel track sprayer equipped with 8002E nozzles calibrated to deliver 187 L/ha over an application area of 0.503 square meters at a spray height of 18 inches (43 cm) above the average plant canopy height. Control plants were sprayed in the same manner with the solvent blank.
(§3) The treated plants and control plants were placed in a greenhouse as described above and watered by subirrigation to prevent wash-off of the test compounds. After 14 d, the condition of the test plants as compared with that of the untreated plants was determined visually and scored on a scale of 0 to 100 percent where 0 corresponds to no injury and 100 corresponds to complete kill.

[2] = tested on: ABUTH: velvetleaf (Abutilon theophrasti); assay: Post-emergent herbicidal test, velvetleaf; conditions: post-emergence, 336 h, 14 days after application, read-out: Visual Growth Reduction (%) 14 Days After Application ABUTH
Description: as §1, §2, §3

[3] = tested on: DIGSA: large crabgrass (Digitaria sanguinalis); assay: Post-emergent herbicidal test, large crabgrass; conditions: post-emergence, 336 h, 14 days after application, read-out: Visual Growth Reduction (%) 14 Days After Application DIGSA
Description: as §1, §2, §3

[4] = tested on: ECHCG: barnyardgrass (Echinochloa crus-galli); assay: Post-emergent herbicidal test, barnyardgrass; conditions: post-emergence, 336 h, 14 days after application, read-out: Visual Growth Reduction (%) 14 Days After Application ECHCG
Description: as §1, §2, §3

[5] = tested on: SORVU: shattercane (Sorghum bicolor); assay: Post-emergent herbicidal test, shattercane; conditions: post-emergence, 336 h, 14 days after application, read-out: Visual Growth Reduction (%) 14 Days After Application SORVU
Description: as §1, §2, §3

[6] = tested on: IPOHE: ivyleaf morningglory (Ipomoea hederacea); assay: Post-emergent herbicidal test, ivyleaf morningglory; conditions: post-emergence, 336 h, 14 days after application, read-out: Visual Growth Reduction (%) 14 Days After Application IPOHE
Description: as §1, §2, §3

[7] = tested on: BRSNN: oilseed rape, canola (Brassica napus); assay: Post-emergent herbicidal test, oilseed rape; conditions: post-emergence, 336 h, 14 days after application, read-out: Visual Growth Reduction (%) 14 Days After Application BRSNN
Description: as §1, §2, §3

[8] = tested on: EPHHL: wild poinsettia (Euphorbia heterophylla); assay: Post-emergent herbicidal test, wild poinsettia; conditions: post-emergence, 336 h, 14 days after application, read-out: Visual Growth Reduction (%) 14 Days After Application EPHHL
Description: as §1, §2, §3

[9] = tested on: VIOTR: wild violet (Viola tricolor); assay: Post-emergent herbicidal test, wild violet; conditions: post-emergence, 336 h, 14 days after application, read-out: Visual Growth Reduction (%) 14 Days After Application VIOTR
Description: as §1, §2, §3

[10] = tested on: CIRAR: Canada thistle (Cirsium arvense); assay: Post-emergent herbicidal test, Canada thistle; conditions: post-emergence, 336 h, 14 days after application, read-out: Visual Growth Reduction (%) 14 Days After Application CIRAR
Description: as §1, §2, §3

[11] = tested on: CYPES: yellow nutsedge (Cyperus esculentus); assay: Post-emergent herbicidal test, yellow nutsedge; conditions: post-emergence, 336 h, 14 days after application, read-out: Visual Growth Reduction (%) 14 Days After Application CYPES
Description: as §1, §2, §3

Nc1c(F)c(-c2ccc(Cl)c3c2OCO3)nc(C(=O)OCc2ccccc2)c1Cl [Compound 1B]
pest or weed control at 17.5 g/ha ([1]; 17.5 g ai/ha): 0% | pest or weed control at 35 g/ha ([1]; 35 g ai/ha): 0% | pest or weed control at 70 g/ha ([1]; 70 g ai/ha): 20% | pest or weed control at 140 g/ha ([1]; 140 g ai/ha): 50% | pest or weed control at 17.5 g/ha ([2]; 17.5 g ai/ha): 90% | pest or weed control at 35 g/ha ([2]; 35 g ai/ha): 95% | pest or weed control at 70 g/ha ([2]; 70 g ai/ha): 100% | pest or weed control at 140 g/ha ([2]; 140 g ai/ha): 100% | pest or weed control at 17.5 g/ha ([3]; 17.5 g ai/ha): 0% | pest or weed control at 35 g/ha ([3]; 35 g ai/ha): 0% | pest or weed control at 70 g/ha ([3]; 70 g ai/ha): 20% | pest or weed control at 140 g/ha ([3]; 140 g ai/ha): 50% | pest or weed control at 17.5 g/ha ([4]; 17.5 g ai/ha): 0% | pest or weed control at 35 g/ha ([4]; 35 g ai/ha): 0% | pest or weed control at 70 g/ha ([4]; 70 g ai/ha): 0% | pest or weed control at 140 g/ha ([4]; 140 g ai/ha): 0% | pest or weed control at 17.5 g/ha ([5]; 17.5 g ai/ha): 25% | pest or weed control at 35 g/ha ([5]; 35 g ai/ha): 50% | pest or weed control at 70 g/ha ([5]; 70 g ai/ha): 60% | pest or weed control at 140 g/ha ([5]; 140 g ai/ha): 85% | pest or weed control at 17.5 g/ha ([6]; 17.5 g ai/ha): 0% | pest or weed control at 35 g/ha ([6]; 35 g ai/ha): 0% | pest or weed control at 70 g/ha ([6]; 70 g ai/ha): 0% | pest or weed control at 140 g/ha ([6]; 140 g ai/ha): 10% | pest or weed control at 17.5 g/ha ([7]; 17.5 g ai/ha): 95% | pest or weed control at 35 g/ha ([7]; 35 g ai/ha): 100% | pest or weed control at 70 g/ha ([7]; 70 g ai/ha): 100% | pest or weed control at 140 g/ha ([7]; 140 g ai/ha): 100% | pest or weed control at 17.5 g/ha ([8]; 17.5 g ai/ha): 10% | pest or weed control at 35 g/ha ([8]; 35 g ai/ha): 10% | pest or weed control at 70 g/ha ([8]; 70 g ai/ha): 15% | pest or weed control at 140 g/ha ([8]; 140 g ai/ha): 10% | pest or weed control at 17.5 g/ha ([9]; 17.5 g ai/ha): 40% | pest or weed control at 35 g/ha ([9]; 35 g ai/ha): 75% | pest or weed control at 70 g/ha ([9]; 70 g ai/ha): 60% | pest or weed control at 140 g/ha ([9]; 140 g ai/ha): 75% | pest or weed control at 17.5 g/ha ([10]; 17.5 g ai/ha): 75% | pest or weed control at 35 g/ha ([10]; 35 g ai/ha): 80% | pest or weed control at 70 g/ha ([10]; 70 g ai/ha): 85% | pest or weed control at 140 g/ha ([10]; 140 g ai/ha): 90% | pest or weed control at 17.5 g/ha ([11]; 17.5 g ai/ha): 75% | pest or weed control at 35 g/ha ([11]; 35 g ai/ha): 85% | pest or weed control at 70 g/ha ([11]; 70 g ai/ha): 85% | pest or weed control at 140 g/ha ([11]; 140 g ai/ha): 90%
